According to patent US7094754B2, “Anti-aging and wound healing compounds” (Kimberly-Clark Worldwide, Inc., priority 2001, dated 2006):

Key:
[1] = system: wounds in C57BL6/KsJ db/db mice; test: Wound healing in db/db diabetic mice; format: in vivo
Text: Wounds were created in C57BL6/KsJ db/db mice with a 4 mm biopsy punch. The mice were obtained from The Jackson Laboratories and were aged 3-7 months before the onset of the wounding protocol. All mice were anesthetized prior to wounding. Two wounds were introduced onto the upper back of each animal by pulling the skin away from underlying structures and pushing the punch through the isolated skin. Typically, wounds were created to an average depth of 1.7 mm, with a range of 1.3 to 2.2 mm. No muscle involvement occurred during the course of wounding.
Each day the wounds were digitally photographed and wound areas were determined by computer integration of the photographs. All wound treatments and the subsequent data analyses were performed in a blind manner (see e.g., Brown et al., 1994). Wound area at the time of wounding (day 0) is arbitrarily set to a relative value of 1 for all wounds; such that subsequent wound areas are converted to relative wound areas by dividing the wound area at day n by the wound area at day zero.

[2] = system: normal human dermal fibroblasts (Clonetics, CC-2509); test: Fibroblast proliferation assay; format: cell-based; settings: 28 hours
Protocol: A human skin fibroblast cell line (Clonetics, Walkersville, Md., normal human dermal fibroblasts, neonatal, catalog number CC-2509) was tested to ascertain whether exposure to a peptide of the invention would stimulate cellular proliferation. The proliferative response of the human skin fibroblast cell line to thel 9mer peptide (SEQ ID NO:11) was measured in a 96-well assay system using serum-free medium as a control. […] Plates were incubated for 24 hours at 37° C. in a humidified 5% CO2 atmosphere. After incubation, the medium was aspirated and the wells were rinsed twice with 100 μl of serum-free DMEM. […] In addition, 100 μl of vehicle (serum-free DMEM) was added to 10 wells as control. All wells were incubated for 28 hours at 37° C. in a humidified, 5% CO2 atmosphere. After incubation, 20 μl of Cell Titer 96 Aqueous One Solution was added to all wells. The plates were swirled gently and placed back in the incubator for 45 minutes and spectrophotometric absorbance was read at 490 nm. Results were analyzed statistically using one-way ANOVA.

[3] = system: normal human epidermal keratinocytes (Clonetics, CC-2503); test: Keratinocyte proliferation assay; format: cell-based; settings: 48 hours
Protocol: The proliferative response of these human skin keratinocytes to the 19mer peptide (SEQ ID NO:11) was measured in a 96-well assay system using keratinocyte basal medium (KBM, Clonetics, catalog number CC-3103) as a control. […] The plates were incubated for 24 hours at 37° C. in a humidified 5% CO2 atmosphere. […] In addition, 100 μl of vehicle KBM was added to 10 wells as control. The plate was incubated for 48 hours at 37° C. in a humidified, 5% CO2 atmosphere. After incubation, 20 μl of Cell Titer 96 Aqueous One Solution was added to all wells. The plate was swirled gently and placed back in the incubator for 3 hours. The spectrophotometric absorbance of each well was read at 490 nm. Results were analyzed statistically using one-way ANOVA.

[4] = system: neutrophils isolated from human blood; test: Neutrophil migration assay (transwell); format: cell-based; settings: HSA 0.4%
Protocol: Peptides were synthesized and purified by the Microchemical Facility at Emory University or by SigmaGenesis. All peptides were analyzed by mass spectrometry after HPLC to assess purity. Approximately 0.5–2.0 milligrams of peptide were used to make fresh stock solutions (5 mg/mL in HBSS/HSA) for each migration assay. The peptide stock solutions were used to make more dilute solutions (1 mg/mL, 100 μg/mL, 10 μg/mL, 1 μg/mL, 100 ng/mL, and 10 ng/mL) in HBSS/HSA for the assays.
Neutrophils were isolated from human blood (collected in Vacutainerm tubes containing EDTA) by layering the blood/EDTA mixture (about 20 mL) on top of two layers of Histopaque™ 1119 (bottom layer, 18 mL) and 1077 (top layer, 7 mL) in 50 mL Falcon tubes. The tubes were centrifuged at 1800 rpm for 30 minutes (no brake). Four layers appeared in the tubes after the spin (from top to bottom layers): plasma, 1077, 1119, and red blood cells. The buffy coat between the plasma and 1077 layers contained lymphocytes, monocytes, and some platelets. The plasma layer, the buffy coat, and most of the 1077 layer was removed and discarded. The 1119 layer that contained the neutrophils was removed and was placed into a clean 50 mL tube. Dulbecco's Phosphate Buffered Saline (DPBS) was added to bring the volume to 50 mL. The cells were centrifuged for 15 minutes at 2100 rpm. The cells were resuspended in 10 mL of DPBS, transferred to 15 mL tubes, and centrifuged again for 10 minutes at 2000 rpm. This process was repeated to wash the cells a second time. After the supernatant was removed, the red blood cells were lysed by adding 6 mL of cold sterile water to each 15 mL of supernatant. Cells were mixed in the water for only 30 seconds. Six mL of cold 2% sterile saline was then added. Cells were centrifuged again for 10 minutes at 2000 rpm. The red supernatant (containing hemoglobin from red blood cells) was removed. This process of red blood cell lysis was repeated two more times to remove all of the red blood cells. After most of the red blood cells were removed, neutrophils were resuspended in 10 mL of HBSS/HSA for counting with trypan blue.
A neutrophil migration assay was performed in duplicate using a 24-well transwell plate (3 μm pore size for membrane). Transwell membranes were pre-moistened with 20–40 μL of HBSS/HSA (0.04–0.4%). Chemotactic solutions (500 μL) were added to the bottom of each well. […] Transwells were then placed into the chemotactic solutions. The plate was placed into the incubator (37° C., 5% CO2) for one hour. Cells that migrated through the membrane were counted using trypan blue.
In the neutrophil migration experiments, neutrophils that were isolated were approximately 95% viable. Neutrophils were resuspended in HBSS/0.4%HSA for this experiment. IL-8 (10 nM in the HBSS/0.4%HSA buffer) was used as a positive control for neutrophil migration.

## CC(C)[C@H](NC(=O)[C@H](CC(=O)O)NC(=O)[C@@H]1CCCN1C(=O)[C@H](CC(N)=O)NC(=O)CNC(=O)[C@H](CS)NC(=O)[C@H](CCCNC(=N)N)NC(=O)[C@@H]1CCCN1)C(=O)N[C@@H](C)C(=O)N[C@@H](CC(N)=O)C(=O)N[C@@H](Cc1ccc(O)cc1)C(=O)N[C@@H](CC(N)=O)C(=O)N[C@@H](Cc1ccccc1)C(=O)N[C@@H](Cc1ccccc1)C(=O)N1CCC[C@H]1C(=O)N[C@@H](CCCNC(=N)N)C(=O)N[C@@H](CCCCN)C(=O)N1CCC[C@H]1C(=O)N[C@@H](CCCCN)C(=O)O [19-mer]
[1]; single dose 5 μL of 20 μg/mL at time of wounding, saline control 14 days
  time to full wound closure (average): 9 days post wounding
[1]; single dose 5 μL of 20 μg/mL, saline control day 8
  start of wound contraction process: 5 days
[2]; 1×10^−4 M
  fibroblast growth (OD 490 nm) versus control: even greater cell growth
[2]; 1×10^−5 M
  fibroblast growth (OD 490 nm) versus control: significantly greater cell density
[2]; 1×10^−6 M
  fibroblast growth (OD 490 nm) versus control: a small amount of cell proliferation
[3]; 1×10^−4 M
  keratinocyte growth (OD 490 nm) versus control: even greater cell growth
[3]; 1×10^−5 M
  keratinocyte growth (OD 490 nm) versus control: significantly greater cell density
[3]; 1×10^−6 M
  keratinocyte growth (OD 490 nm) versus control: only a small amount of cell proliferation
[4]; 1 μg/mL
  Percent Neutrophil Migration exp.1: 32%
[4]; 10 μg/mL
  Percent Neutrophil Migration exp.1: 22%
[4]; 100 μg/mL
  Percent Neutrophil Migration exp.1: 29%
[4]; 1 mg/mL, one hour
  Percent Neutrophil Migration exp.1: 23%
